Assay results taken from patent US20200246314A1, “DYSLIPIDEMIA THERAPEUTIC AGENT” (KOWA COMPANY, LTD., priority 2014, published 2020).

System: LDL-C in plasma
Test: Effect on LDL-C of rat in combination use of compound A and niacin
Type: in vivo
Details: male SD rats, oral once per day for one week, blood 4 h after final administration; single agent: compound A 0.1 mg/kg or nicotinic acid 100 mg/kg
From the text: Male rats (6-week-old, Jcl:SD, CLEA Japan, Inc.) were used for an experiment. Blood was collected from the jugular vein under satiation. The rats were divided into four groups (N=8) based on TG and TC in plasma and a body weight. For one week from the next day, each of a solvent (0.5% methylcellulose aqueous solution: MC), compound A alone, nicotinic acid alone, and combination of compound A and nicotinic acid was orally administered once per day. Four hours after final administration of the pharmaceutical agent, blood was collected under isoflurane anesthesia, and LDL-C in plasma was measured using high performance liquid chromatography by a method of Usui et al (Usui S et al. Clin Chem., 46, 63-72, 2000). Group 1: Control Group 2: 0.1 mg/kg of compound A […] Group 4: 0.1 mg/kg of compound A and 100 mg/kg of nicotinic acid Results were presented by an average value±standard deviation. Comparison between the control group and each of the pharmaceutical agent administration groups was performed by a multiple comparison test of Dunnett, and a risk rate of less than 5% was determined to have a significant difference.

Compound | effect on LDL-C in plasma
CC[C@@H](Oc1cccc(CN(CCCOc2ccc(OC)cc2)c2nc3ccccc3o2)c1)C(=O)O [Compound A, (R)-2-[3-[[N-(benzoxazol-2-yl)-N-3-(4-methoxyphenoxy)propyl]aminomethyl]phenoxy] butyric acid] | did not exhibit a clear effect on LDL-C
O=C(O)c1cccnc1 [nicotinic acid, pyridine-3-carboxylic acid] | did not exhibit a clear effect on LDL-C
